Values after ≈ are worked out from the molar mass of the structure shown. Like-named read-outs stand apart in the source and are kept apart here.
Columns and labels:
[1] = tested on: S. aureus CPHL GISA HO41340156; experiment: MIC assay; assay type: cell-based; details: Staphylococcus aureus
Method: (§1) The staphylococci and enterococci were cultured and maintained on Mueller-Hinton Medium (agar and broth) at pH 7.2; they were incubated aerobically at 37° C. for 24 hours.
(§2) This is a standard international method for quantitatively assessing the antimicrobial activity of a compound in a liquid medium. The method used a 96-well microtitre plate, capable of holding about 200 μl of liquid per well. […] The culture media were as described above for the relevant test organisms.
(§3) The wells were inoculated with a liquid suspension of freshly grown micro-organism and incubated under the conditions described above. After incubation, the microtitre plate was examined visually (with the aid of a light box) for cell pellets in and/or opaque wells, which would indicate microbial growth. The MIC value was recorded as the lowest concentration of test compound required to inhibit microbial growth, ie, the lowest concentration for which the liquid in the well remained clear.
(§4) The assays were conducted in duplicate and included both negative (culture medium only) and positive (culture medium, diluting solvent and inoculum) controls.

[2] = tested on: S. saprophyticus NCTC 7292; experiment: MIC assay; assay type: cell-based; details: Staphylococcus saprophyticus, NCTC7292
Method: as §1, §2, §3, §4

[3] = tested on: Staphylococcus capitis ATCC 27840; experiment: MIC assay; assay type: cell-based; details: ATCC27840
Method: as §1, §2, §3, §4

[4] = tested on: Staphylococcus hominis ATCC 27844; experiment: MIC assay; assay type: cell-based; details: ATCC27844
Method: as §1, §2, §3, §4

P. acnes PRP-010 [5] = experiment: MIC assay; assay type: cell-based, Propionibacterium acnes; details: Cutibacterium acnes, PRP010; P. acnes PRP-010 (resistance MLSK)
Method: (§5) Other propionibacterial strains were also tested, as described in Example 8 below. These included certain antibiotic resistant propionibacteria, such as the two P. acnes strains PRP-010 and PRP-053 which are resistant respectively to macrolides-lincosamides-streptogramins-ketolides (MLSK) and to macrolides-lincosamides-streptogramins (MLS) and tetracycline—in other words, PRP-010 is resistant to erythromycin and clindamycin, and […] to erythromycin, clindamycin and tetracycline.
(§6) The Propionibacterium spp organisms were cultured and maintained on Wilkins-Chalgren Anaerobe Medium (agar and broth) at pH 6.0; cultures were incubated anaerobically at 37° C. for 72 hours.
as §2, §3, §4

P. acnes PRP-053 [6] = experiment: MIC assay; assay type: cell-based, Propionibacterium acnes; details: Cutibacterium acnes, PRP053; P. acnes PRP-053 (resistance Tet/MLS)
Method: as §5, §6, §2, §3, §4

P. acnes PRP-010 [7] = experiment: MBC assay; assay type: cell-based, Propionibacterium acnes; details: Cutibacterium acnes, PRP010; P. acnes PRP-010 (resistance MLSK)
Method: as §5, §6
(§7) This assay, normally carried out after an MIC assay, determines the minimum concentration of a compound that is lethal to the micro-organism being tested.
(§8) These samples were then individually sub-cultured on non-selective agar medium, under the incubation conditions described above. Following incubation they were examined visually for bacterial growth.

P. acnes PRP-053 [8] = experiment: MBC assay; assay type: cell-based, Propionibacterium acnes; details: Cutibacterium acnes, PRP053; P. acnes PRP-053 (resistance Tet/MLS)
Method: as §5, §6, §7, §8

P. acnes PRP-010 [9] = experiment: Disc diffusion assay (DDA); assay type: cell-based, Propionibacterium acnes; details: zone diameter, 200 μg per disc
Method: as §5, §6
(§9) A sterile paper disc was impregnated with a sample of the test compound and a minimum of 30 minutes allowed for the solvents to evaporate as far as possible. The disc was then placed on an agar plate onto which the test micro-organism had been inoculated. The plate was then incubated under the conditions described above, following which it was examined visually for signs of bacterial growth. If the test compound had antimicrobial activity, a circular zone of no growth would be obtained around the disc. The diameter of this zone of “inhibition” was measured using a ProtoCOL™ automated zone sizer (Synbiosis, Cambridge, UK). In general, a greater diameter and/or area of the zone of inhibition indicates a greater antimicrobial activity in the relevant test compound, although other factors such as test compound mobility through the agar gel may also influence the result.
(§10) The area of the zone of inhibition was calculated from the measured zone diameter (D) using the formula π(D/2)^2.

P. acnes PRP-053 [10] = experiment: Disc diffusion assay (DDA); assay type: cell-based, Propionibacterium acnes; details: zone diameter, 200 μg per disc
Method: as §5, §6, §9, §10

E faecalis ATCC 29212 = experiment: MBC assay; assay type: cell-based; details: Enterococcus faecalis, ATCC29212
Source text: 3. Enterococcus faecalis ATCC 29212—this is a Gram-positive bacterium belonging to the genus Enterococcus. Enterococci have similar properties to streptococci, but differ in their ability to grow on bile-salt containing media such as MacConkey's Agar. Their principal habitat is the mammalian gastrointestinal tract. They cause a number of important infections including endocarditis, urinary tract infections and abscesses. In the context of skin, they are frequently isolated from wound infections. Unlike the streptococci, the enterococci have developed widespread resistance to penicillin. More recently, E. faecalis and E. faecium strains have also developed resistance to the glycopeptide antibiotics such as vancomycin. Vancomycin-Resistant Enterococci (VRE), principally vanA strains of E. faecium, now represent a serious healthcare-acquired infection hazard in the USA, Japan and Western Europe.
as §1, §7
These samples were then individually sub-cultured on non-selective agar medium, under the incubation conditions described above. […]

S. aureus ATCC 29213 = experiment: Time-to-kill (TTK) assay; assay type: cell-based, Staphylococcus aureus; details: BP 125 μg/ml and/or TBHQ […]; for CFU/ml 0.5: 0.5 hours; for CFU/ml 1.0: 1 hour
Method: This quantitative assay was designed to assess the time taken for a test compound to kill a test micro-organism.
Samples from an incubated liquid culture containing the relevant test compound and micro-organism were taken at timed intervals and inoculated onto agar plates. The plates were then incubated as described above and subsequently examined visually for growth. The numbers of viable microbial colonies on the plates were counted and converted to colony-forming units per ml (cfu/ml) using the appropriate dilution factor. By way of example, a colony count of 25 colonies from an agar plate carrying 100 μl of inoculum which had been serially diluted to 10^−6 would yield a viable cell count of 25×10 (to correct to 1 ml)×106 which would be equivalent to 2.5×10^8 cfu/ml. These cfu values were then converted into log10 values and plotted graphically against time of sample removal.
At each time point, samples were assessed in triplicate; the final cfu/ml value was an average (mean) of the three readings.
An appropriate concentration of test compound(s) for use in this assay was determined based on previously conducted MIC/FIC assays.
The TTK assay can provide another measure of synergy, as combinations of compounds may interact to kill test micro-organisms more quickly than the individual compounds alone. This would be indicated by a steeper decline in viable bacterial cell counts as compared to those observed for the individual compounds alone.
TTK assays were then conducted, as described above, on samples of BP, TBHQ and a BP/TBHQ mixture, using S. aureus ATCC 29213 as the test organism. The solvents used were DMSO for the BP and ethanol for the TBHQ. The results are shown in Table 3. cfu values were measured at time 0, 0.5 hours and 1 hour.

Row | Structure (SMILES) | MIC [1] [µg/mL] | MIC [2] [µg/mL] | MIC ([3]; Staphylococcus capitis) [µg/mL] | MIC ([4]; Staphylococcus hominis) [µg/mL] | MIC (P. acnes PRP-010 [5]) [µg/mL] | MIC (P. acnes PRP-053 [6]) [µg/mL] | MBC (P. acnes PRP-010 [7]) [µg/mL] | MBC (P. acnes PRP-053 [8]) [µg/mL] | DDA (P. acnes PRP-010 [9]) | DDA (P. acnes PRP-053 [10]) | MBC (E faecalis ATCC 29212) [µg/mL] | Time to kill (S. aureus ATCC 29213) [h] | CFU/ml 0.5 (S. aureus ATCC 29213) | CFU/ml 1.0 (S. aureus ATCC 29213) | CFU/ml t = 0 (S. aureus ATCC 29213) | MIC ([2]; S. saprophyticus NCTC 7292, read-out: MIC) [µg/mL] | MIC ([3]; Staphylococcus capitis ATCC 27840, read-out: MIC) [µg/mL] | MIC ([4]; Staphylococcus hominis ATCC 27844, read-out: MIC) [µg/mL] | MBC (E faecalis ATCC 29212; E faecalis ATCC 29212, read-out: MBC) [µg/mL]
1 | CC(C)(C)c1cc(O)ccc1O [TBHQ, t-butyl hydroquinone] | 7.8 (≈ 46.9 µM) | 3.9 (≈ 23.5 µM) | 1.95 to 3.9 (≈ 11.7 to 23.5 µM) | 1.95 (≈ 11.7 µM) | 3.9 (≈ 23.5 µM) | 3.9 (≈ 23.5 µM) | 15.6 (≈ 93.9 µM) | 7.8 (≈ 46.9 µM) | 18.71 (±0.18) mm | 23.49 (±1.44) mm | 31.2 | >1 | 7.40 × 10^5 CFU/ml | 8.47 × 10^5 CFU/ml | 7.63 × 10^5 CFU/ml | – | – | – | –
2 | O=C(OOC(=O)c1ccccc1)c1ccccc1 [benzoyl peroxide] | 125 (≈ 516 µM) | – | – | – | 31.2 (≈ 129 µM) | 31.2 (≈ 129 µM) | 31.2 (≈ 129 µM) | 62.5 (≈ 258 µM) | 30.39 (±0.82) mm | 29.72 (±0.48) mm | – | >1 | 6.20 × 10^5 CFU/ml | 3.67 × 10^4 CFU/ml | 7.63 × 10^5 CFU/ml | 250 (≈ 1030 µM) | 250 (≈ 1030 µM) | 250 (≈ 1030 µM) | > 250

Reference: patent publication US20080262097A1, “Formulations” (priority 2005, published 2008)
